ChEMBL document CHEMBL1156579, “Orally active factor Xa inhibitors: investigation of a novel series of 3-amidinophenylsulfonamide derivatives using an amidoxime prodrug strategy” (Bioorg Med Chem Lett, 2008)
Blank lines part the entries; values can stand above or below the compound they belong to.

Columns and labels:
[1] = tested on: Rattus norvegicus; assay: Stability in iv dosed rat assessed as prodrug conversion; format: ADME, organism-based; conditions: in vivo
[2] = Total clearance in iv dosed rat; format: ADME, organism-based; conditions: in vivo
[3] = target: Coagulation factor X (Homo sapiens, UniProt P00742); assay: Inhibition of human factor 10a by Dixon-plot method
Chain of Coagulation factor X (P00742 41-179 limits assumed): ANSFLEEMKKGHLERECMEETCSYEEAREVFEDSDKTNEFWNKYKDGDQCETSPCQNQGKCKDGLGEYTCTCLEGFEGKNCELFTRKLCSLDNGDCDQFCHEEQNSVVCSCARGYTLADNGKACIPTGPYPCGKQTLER
Chain of Coagulation factor X (P00742 235-488 limits assumed): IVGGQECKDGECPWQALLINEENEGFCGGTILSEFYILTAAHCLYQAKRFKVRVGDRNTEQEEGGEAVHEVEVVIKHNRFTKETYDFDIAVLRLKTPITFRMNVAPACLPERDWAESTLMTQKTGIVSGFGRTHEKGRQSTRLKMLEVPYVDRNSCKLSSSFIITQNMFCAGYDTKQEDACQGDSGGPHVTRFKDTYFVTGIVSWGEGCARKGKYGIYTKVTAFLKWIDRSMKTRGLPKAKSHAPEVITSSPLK

[4] = Oral bioavailability in rat; format: ADME, organism-based; conditions: in vivo
[5] = tested on: Plasma; assay: Anticoagulant activity in human plasma assessed as concentration required to double prothrombin time; format: functional
[6] = target: Trypsin (Homo sapiens, UniProt P07477+P07478+P35030); assay: Inhibition of human trypsin by Dixon-plot method; format: protein assay
[7] = target: Prothrombin (Homo sapiens, UniProt P00734); assay: Inhibition of human thrombin by Dixon-plot method
[8] = Systemic clearance in rat; format: ADME, organism-based; conditions: in vivo
[9] = tested on: Mus musculus; assay: Antithrombotic activity against thromboplastin-induced lethal thromboembolism in po dosed thrombosis mouse model assessed as survival; format: functional
[10] = Oral bioavailability in mouse at 30 mg/kg; format: ADME, organism-based; conditions: in vivo
[11] = Oral bioavailability in mouse; format: ADME, organism-based; conditions: in vivo
[12] = Oral bioavailability in rabbit; format: ADME, organism-based, Oryctolagus cuniculus; conditions: in vivo
[13] = Oral bioavailability in dog; format: ADME, organism-based, Canis lupus familiaris; conditions: in vivo
[14] = Oral bioavailability in cynomolgus monkey; format: ADME, organism-based, Macaca fascicularis; conditions: in vivo

SMILES: CC(C)c1ccc(CCNS(=O)(=O)c2cc(/C(N)=N/O)ccc2O)cc1
Activity [1]: 1%
clearance [2]: 27 mL/min
Ki [3]: 7.3 µM
bioavailability [4]: 6.6%

SMILES: CC(C)c1ccc(CCNS(=O)(=O)c2cc(C(=N)N)ccc2O)cc1
clearance [2]: 27 mL/min
Activity [5]: 2.6 µM
Ki [6]: 0.8 µM
Ki [7]: > 10 µM
Ki [3]: 0.029 µM
bioavailability [4]: 3.7%

SMILES: CC(C)c1ccc(CCN(CC(=O)O)S(=O)(=O)c2cc(C(=N)N)ccc2O)cc1
clearance [2]: 8.1 mL/min
Activity [5]: 1.4 µM
Ki [3]: 0.014 µM
clearance [8]: 8.1 mL/min

SMILES: CCOC(=O)CN(CCc1ccc(C(C)C)cc1)S(=O)(=O)c1cc(/C(N)=N/O)ccc1O
Ki [3]: 3.7 µM
bioavailability [4]: < 1%

SMILES: COc1ccc(C(=N)N)cc1S(=O)(=O)NCCc1ccc(C(C)C)cc1
Ki [3]: 14 µM

SMILES: CCOC(=O)COc1cc(C(C)C)ccc1CCNS(=O)(=O)c1cc(C(=N)NO)ccc1O
Ki [3]: 3.5 µM
bioavailability [4]: 13%
ED50 [9]: 15.8 mg/kg

SMILES: CC(C)(C)c1ccc(CCNS(=O)(=O)c2cc(C(=N)N)ccc2O)cc1
Ki [3]: 0.027 µM

SMILES: CC(C)c1ccc(CCN(C)S(=O)(=O)c2cc(C(=N)N)ccc2O)cc1
Ki [6]: 0.77 µM
Ki [3]: 0.059 µM

SMILES: CC(C)c1ccc(CCNS(=O)(=O)c2cc(C(=N)N)ccc2Cl)cc1
Ki [6]: 4 µM
Ki [3]: 3 µM

SMILES: CC(C)Oc1ccc(CCNS(=O)(=O)c2cc(C(=N)N)ccc2O)cc1
IC50 [6]: 1.7 µM
Ki [7]: > 10 µM
Ki [3]: 0.1 µM

SMILES: CC(C)c1ccc(CCNS(=O)(=O)c2cccc(C(=N)N)c2)cc1
IC50 [6]: 9.7 µM
Ki [7]: > 10 µM
Ki [3]: 2.1 µM

SMILES: CC(=N)N1CCC(c2ccc(NC(=O)CN(Cc3cccc(OCC(=O)O)c3)c3cccc(C(=N)N)c3)cc2)CC1
clearance [2]: 23 mL/min
Activity [5]: 0.84 µM
Ki [6]: 6.17 µM
Ki [7]: 26 µM
bioavailability [4]: 0.9%

SMILES: CC(C)c1ccc(CCNS(=O)(=O)c2cc(C(=N)N)ccc2O)c(NC(=O)C(=O)O)c1
clearance [2]: 20 mL/min
Ki [3]: 0.0097 µM

SMILES: CC(C)c1ccc(CCN(CC(=O)O)S(=O)(=O)c2cc(/C(N)=N/O)ccc2O)cc1
Activity [1]: 16%
clearance [2]: 13 mL/min
Ki [3]: 7 µM

Further lines, with some results ahead:

clearance [2]: 7.5 mL/min
SMILES: CS(=O)(=O)c1ccccc1-c1ccc(CCNS(=O)(=O)c2cc(C(=N)N)ccc2O)c(OCC(=O)O)c1

clearance [2]: 1.7 mL/min
Ki [3]: 0.051 µM
bioavailability [10]: 38%
SMILES: CC(C)c1ccc(CCNS(=O)(=O)c2cc(C(=N)N)ccc2O)c(OCC(=O)O)c1
Activity [5]: 7.2 µM

clearance [2]: 3.2 mL/min
Ki [3]: 0.062 µM
SMILES: CC(C)c1ccc(CCNS(=O)(=O)c2cc(C(=N)N)ccc2O)c(NCC(=O)O)c1

clearance [2]: 25 mL/min
Ki [3]: 0.0057 µM
SMILES: CS(=O)(=O)c1ccccc1-c1ccc(CCNS(=O)(=O)c2cc(C(=N)N)ccc2O)c(NCC(=O)O)c1

Ki [6]: 1.17 µM
Ki [7]: 57.8 µM
SMILES: CS(=O)(=O)c1ccccc1-c1ccc(CCNS(=O)(=O)c2cc(C(=N)N)ccc2O)c(OCC(=O)O)c1.Cl
Activity [5]: 1.01 µM

Activity [1]: 57%
clearance [2]: 7.5 mL/min
Ki [3]: > 10 µM
bioavailability [4]: 9.2%
SMILES: CC(C)c1ccc(CCNS(=O)(=O)c2cc(/C(N)=N/O)ccc2O)c(OCC(=O)O)c1

bioavailability [11]: 15%
bioavailability [12]: 23%
bioavailability [13]: 4.9%
bioavailability [14]: 11%
SMILES: CCCCOC(=O)COc1cc(-c2ccccc2S(C)(=O)=O)ccc1CCNS(=O)(=O)c1cc(C(=N)NO)ccc1O.Cl
